From patent EP4806890A1, “CRYSTALLINE COMPOUND OR BASIC SALT THEREOF, PREPARATION METHOD THEREFOR, AND USE THEREOF” (Abbisko Therapeutics Co., Ltd., priority 2023, dated 2025)
Entries after “also recorded” stand apart in the source; their conditions may differ.

Legend:
Type in all cases: physicochemical
[1] = Stability determination (thermal stability and photostability, HPLC purity, appearance, XRPD); conditions: for physical and chemical stability (in words): 50 °C/75% RH (open), 80 °C for 7 days and photostress for 10 days; for XRPD: crystalline form found
Method: (§1) The stability and solubility of the crystalline free form of the compound of formula (I) or the basic salt thereof of the present application were determined by HPLC.
An appropriate amount of the sample was placed in a vial and left to stand at 50 °C, 80 °C or 50 °C & 75% RH (open) for 7 days to evaluate thermal stability. An appropriate amount of the sample was placed in a transparent vial, […] evaluation under conditions of overall near-ultraviolet energy of 1.2 * 10^6 Lux·hr and no less than 200 W·hr/m2.

[2] = Solubility determination (equilibrium solubility, 24 hrs stirring at room temperature, HPLC); conditions: for Equilibrium solubility: target concentration 2000 µg/mL, 24 hrs; for pH24 hrs: pH of the filtrate after 24 hrs
Method: as §1
The desired amount of the compound was weighed into a glass vial, and the desired amount of a vehicle was added. A stir bar was added to the vial, and the mixture was stirred at room temperature for 24 hrs. After 24 hrs, the appearance of the sample was observed. An appropriate amount of the sample was filtered through a PVDF 0.45 µm filter membrane, and the filtrate was collected. The pH value of the filtrate was determined, and the sample was diluted with MeOH. The diluted sample was injected into an HPLC system to determine the concentration.

[3] = Hygroscopic behavior test by dynamic vapor sorption (DVS); conditions: for hygroscopicity (in words): DVS, 25 °C
Text: The experimental method of characterizing the crystalline free form of the compound of formula (I) or the basic salt thereof using dynamic vapor sorption (DVS) is as follows: a small amount of the crystalline sample was placed in a precision sample tray that was compatible with the instrument; after the sample was loaded, the sample tray was placed into the instrument for analysis. In this patent, the instruments used for dynamic vapor sorption were all the DVS Intrinsic plus model, and the following experimental parameters were set: nitrogen was used as the carrier gas, a constant temperature of 25 °C was set, the rate of mass percentage change over a unit of time (dm/dt) = 0.002%/min was used as a criterion for determining if equilibrium is reached, and the program humidity change cycle was set to 50-95-0-95-50% RH; within the range of 0-90% RH, a change of 10% RH was taken as a step, and within the range of 90% RH-95% RH, a change of 5% RH was taken as a step.
In the present invention, the hygroscopic weight increases (hygroscopic weight increase/weight before hygroscopy * 100%) of various crystalline forms under various relative humidity conditions were determined using the dynamic vapor sorption method, and the hygroscopicity of different crystalline compounds was evaluated.

[4] = Aluminum foil light exposure control, 9.2 days
[5] = Transparent light exposure, 9.2 days
[6] = pH 4.7, 50 mM acetic acid buffer
[7] = pH 6.8, 50 mM phosphoric acid buffer
[8] = Relative humidity 0.0 % at 25 °C
[9] = Relative humidity 10.0 % at 25 °C
[10] = Relative humidity 20.0 % at 25 °C
[11] = Relative humidity 30.0 % at 25 °C
[12] = Relative humidity 40.0 % at 25 °C
[13] = Relative humidity 50.0 % at 25 °C
[14] = Relative humidity 60.0 % at 25 °C
[15] = Relative humidity 70.0 % at 25 °C
[16] = Relative humidity 80.0 % at 25 °C
[17] = Relative humidity 90.0 % at 25 °C

With `Cc1c(NC(=O)c2cc(C3CC3)c(CN3CCCC[C@H]3C(=O)O)cn2)cccc1-c1cccc(NC(=O)c2cc(C3CC3)c(CN3CCCC[C@H]3C(=O)O)cn2)c1C` [free-form crystalline form C, (2S,2'S)-1,1'-(((((2,2'-dimethyl-[1,1'-biphenyl]-3,3'-diyl)bis(azanediyl))bis(carbonyl))bis(4-cyclopropylpyridine-6,3-diyl))bis(methylene))bis(piperidine-2-carboxylic acid)] the “physical and chemical stability (in words)” value ([1]; 50 °C) was “extremely high physical and chemical stability”, the Appearance ([1]; 50 °C, 7 days) was “White powder” and the “Purity (%)” value ([1]; 50 °C, 7 days) was 98.31%. For the same compound, the Appearance ([1]; 50 °C/75%RH, 7 days) was “White powder”, the “Purity (%)” value ([1]; 50 °C/75%RH, 7 days) was 98.43% and the Appearance ([1]; 80 °C, 7 days) was “White powder”. For the same compound, the “Purity (%)” value ([1]; 80 °C, 7 days) was 97.90%, the Appearance [1, 4] was “White powder” and the “Purity (%)” value [1, 4] was 98.51%. For the same compound, the Appearance ([1]; Initial, 0 days) was “White powder”, the “Purity (%)” value ([1]; Initial, 0 days) was 98.42% and the Appearance [1, 5] was “White powder”. The “Purity (%)” value [1, 5] was 97.91%, the XRPD ([1]; 50 °C, 7 days) was “Free-form crystalline form C” and the XRPD ([1]; 50 °C/75%RH, 7 days) was “Free-form crystalline form C”. The XRPD ([1]; 80 °C, 7 days) was “Free-form crystalline form C”, the XRPD [1, 4] was “Free-form crystalline form C” and the XRPD ([1]; Initial, 0 days) was “Free-form crystalline form C”. The XRPD [1, 5] was “Free-form crystalline form C”, the Equilibrium solubility ([2]; FaSSGF) was 8.9 µg/mL and the Equilibrium solubility ([2]; FaSSIF) was 3.21 µg/mL. The Equilibrium solubility ([2]; FeSSIF) was 5.34 µg/mL, the Equilibrium solubility ([2]; Water, room temperature) was 3.84 µg/mL and the “solubility (in words)” value ([2]; buffer system having a pH of 1.2, compared to the other test conditions) was “improved solubility”. For the same compound, the Equilibrium solubility ([2]; pH 1.2, HCl 100 mM) was 18.92 µg/mL, the Equilibrium solubility [2, 6] was 3.3 µg/mL and the Equilibrium solubility [2, 7] was 2.31 µg/mL. The pH24 hrs ([2]; FaSSGF) was 1.56, the pH24 hrs ([2]; FaSSIF) was 6.41 and the pH24 hrs ([2]; FeSSIF) was 4.90. The pH24 hrs ([2]; Water) was 6.78, the pH24 hrs ([2]; pH 1.2, HCl 100 mM) was 1.30 and the pH24 hrs [2, 6] was 4.77. For the same compound, the pH24 hrs [2, 7] was 6.89, the “hygroscopicity (in words)” value [3] was “moderately hygroscopic; also recorded: moderate hygroscopicity” and the “Hygroscopic weight increase (%)” value [3, 8] was 0.00%. For the same compound, the “Hygroscopic weight increase (%)” value [3, 9] was 0.50%, the “Hygroscopic weight increase (%)” value [3, 10] was 0.75% and the “Hygroscopic weight increase (%)” value [3, 11] was 0.80%. The “Hygroscopic weight increase (%)” value [3, 12] was 1.20%, the “Hygroscopic weight increase (%)” value [3, 13] was 1.35% and the “Hygroscopic weight increase (%)” value [3, 14] was 1.50%. For the same compound, the “Hygroscopic weight increase (%)” value [3, 15] was 1.75%, the “Hygroscopic weight increase (%)” value [3, 16] was 2.21% and the “Hygroscopic weight increase (%)” value [3, 17] was 2.95%. For the same compound, the “crystalline form changes after DVS testing” value [3] was “no crystalline form changes”.
In the case of `Cc1c(NC(=O)c2cc(C3CC3)c(CN3CCCC[C@H]3C(=O)O)cn2)cccc1-c1cccc(NC(=O)c2cc(C3CC3)c(CN3CCCC[C@H]3C(=O)O)cn2)c1C` [free-form crystalline form D, (2S,2'S)-1,1'-(((((2,2'-dimethyl-[1,1'-biphenyl]-3,3'-diyl)bis(azanediyl))bis(carbonyl))bis(4-cyclopropylpyridine-6,3-diyl))bis(methylene))bis(piperidine-2-carboxylic acid)], the “physical and chemical stability (in words)” value ([1]; 50 °C) is reported as “extremely high physical and chemical stability”, the Appearance ([1]; 50 °C, 7 days) is reported as “White powder” and the “Purity (%)” value ([1]; 50 °C, 7 days) is reported as 98.13%. For the same compound, the Appearance ([1]; 50 °C/75%RH, 7 days) was “White powder”, the “Purity (%)” value ([1]; 50 °C/75%RH, 7 days) was 98.24% and the Appearance ([1]; 80 °C, 7 days) was “White powder”. For the same compound, the “Purity (%)” value ([1]; 80 °C, 7 days) was 97.22%, the Appearance [1, 4] was “White powder” and the “Purity (%)” value [1, 4] was 98.26%. The Appearance ([1]; Initial, 0 days) was “White powder”, the “Purity (%)” value ([1]; Initial, 0 days) was 98.17% and the Appearance [1, 5] was “White powder”. The “Purity (%)” value [1, 5] was 96.06%, the XRPD ([1]; 50 °C, 7 days) was “Free-form crystalline form D” and the XRPD ([1]; 50 °C/75%RH, 7 days) was “Free-form crystalline form D”. The XRPD ([1]; 80 °C, 7 days) was “Free-form crystalline form D”, the XRPD [1, 4] was “Free-form crystalline form D” and the XRPD ([1]; Initial, 0 days) was “Free-form crystalline form D”. The XRPD [1, 5] was “Free-form crystalline form D”, the Equilibrium solubility ([2]; FaSSGF) was 87.01 µg/mL and the Equilibrium solubility ([2]; FaSSIF) was 78.44 µg/mL. For the same compound, the Equilibrium solubility ([2]; FeSSIF) was 433.75 µg/mL, the Equilibrium solubility ([2]; Water, room temperature) was 51.93 µg/mL and the Equilibrium solubility ([2]; pH 1.2, HCl 100 mM) was 281.84 µg/mL. It also gave an Equilibrium solubility [2, 6] of 47.41 µg/mL, an Equilibrium solubility [2, 7] of 42.11 µg/mL and a pH24 hrs ([2]; FaSSGF) of 1.57. It also gave a pH24 hrs ([2]; FaSSIF) of 6.43, a pH24 hrs ([2]; FeSSIF) of 4.94 and a pH24 hrs ([2]; Water) of 5.82. For the same compound, the pH24 hrs ([2]; pH 1.2, HCl 100 mM) was 1.16, the pH24 hrs [2, 6] was 4.73 and the pH24 hrs [2, 7] was 6.90. The “solubility (in words)” value ([2]; various pH conditions, buffers and biological medium solutions) was “significantly improved solubility”, the “hygroscopicity (in words)” value [3] was “moderate hygroscopicity” and the “hygroscopicity (in words)” value ([3]; listed as crystalline form D) was “moderately hygroscopic”. For the same compound, the “Hygroscopic weight increase (%)” value [3, 8] was 0.00%, the “Hygroscopic weight increase (%)” value [3, 9] was 0.40% and the “Hygroscopic weight increase (%)” value [3, 10] was 0.85%. The “Hygroscopic weight increase (%)” value [3, 11] was 1.34%, the “Hygroscopic weight increase (%)” value [3, 12] was 1.85% and the “Hygroscopic weight increase (%)” value [3, 13] was 2.30%. The “Hygroscopic weight increase (%)” value [3, 14] was 2.76%, the “Hygroscopic weight increase (%)” value [3, 15] was 3.25% and the “Hygroscopic weight increase (%)” value [3, 16] was 3.79%. The “Hygroscopic weight increase (%)” value [3, 17] was 4.58% and the “crystalline form changes after DVS testing” value [3] was “no crystalline form changes”.
